Measured values: PMC8778866, “Oral Bioavailability Enhancement of Melanin Concentrating Hormone, Development and In Vitro Pharmaceutical Assessment of Novel Delivery Systems” (Pharmaceutics, 2021)
Values belong to the compound of their own block, whether it stands above or below them.

How the values were obtained:
[1] = biological target: T1, pepsin (Sus scrofa, UniProt P00791); assay: Enzymatic stability in simulated gastric fluid (SGF) with pepsin; format: in vitro ADME, porcine; details: SGF with pepsin, 37 °C, 100 rpm, 1 h; RIA; n = 3
T1 construct: purchased Sigma-Aldrich; host or cells: porcine gastric mucosa
T1 sequence (P00791 60-385): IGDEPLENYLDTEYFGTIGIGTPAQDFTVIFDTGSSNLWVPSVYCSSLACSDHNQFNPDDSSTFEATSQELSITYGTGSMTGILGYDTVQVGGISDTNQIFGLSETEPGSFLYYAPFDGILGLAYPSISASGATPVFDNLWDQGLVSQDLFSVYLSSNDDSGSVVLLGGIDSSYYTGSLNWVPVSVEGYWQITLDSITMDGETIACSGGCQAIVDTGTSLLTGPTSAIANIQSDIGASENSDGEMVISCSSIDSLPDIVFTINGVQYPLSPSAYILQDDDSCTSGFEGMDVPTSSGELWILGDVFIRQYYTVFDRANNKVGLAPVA
Experimental: (§1) Enzymatic degradation in the presence of proetolytic enzymes pepsin and pancreatin was investigated. Peptide-loaded particles were added to 100 mL of artificial gastric fluid (simulated gastric fluid—SGF) with pepsin, or artificial intestinal fluid (simulated intestinal fluid—SIF) with pancreatin and incubated at 37 °C under moderate stirring at 100 rpm. SGF and SIF were prepared as per European Pharmacopoeia specifications. A total of 1000 µL samples were collected at determined time intervals for 120 min, and an equal volume of ice-cold reagent was added to stop the enzymatic reaction (0.10 M NaOH for SGF and 0.10 M HCl for SIF). Samples were analyzed by radioimmunoassay.

[2] = test system: T2, pepsin; assay: as above; format: in vitro ADME, porcine; details: pig, simulated gastric fluid (SGF) with pepsin; SGF with pepsin (Ph. Eur.), 37 °C, 100 rpm, 30 min; RIA; mean ± SD, n = 3; read-out: active MCH measured after incubation in SGF
T2 construct: purchased Sigma-Aldrich; host or cells: porcine gastric mucosa
Experimental: as §1

[3] = test system: pancreatin; assay: Enzymatic stability in simulated intestinal fluid (SIF) with pancreatin; format: in vitro ADME, porcine; details: 37 °C, 100 rpm, RIA, mean ± SD, n = 3
Experimental: as §1

[4] = test system: Caco-2 cells; assay: MTT cell viability assay; format: cell-based, human; details: Caco-2, MTT, n = 10
Experimental: A Caco-2 immortalized human adenocarcinoma cell line was purchased from The European Collection of Cell Cultures (ECACC). Cells were seeded and maintained in plastic cell culture flasks in Dulbecco's Modified […] medium (DMEM Sigma-Aldrich Ltd., Budapest, Hungary). Cell culturing media was supplemented with 2 mM L-glutamine, 100 mg/L gentamycin (Sigma-Aldrich Ltd., Budapest, Hungary) and 10% heat inactivated fetal bovine serum (FBS) (Sigma-Aldrich Ltd., Budapest, Hungary). Cells were stored in incubators at 37 °C in a 5% CO2 atmosphere. The colon epithelial Caco-2 cell line forms a single cell layer with well-defined tight junctions. Caco-2 cell viability was evaluated using the MTT method. Cells were harvested and seeded at a density of 10^4 cells/well on flat-bottom 96-well tissue culture plates. Cells were allowed to grow for 7 days under the abovementioned conditions. For the viability measurements, the DMEM was removed. […] Mitochondrial activity of the cells was determined after 3 h incubation with MTT at the concentration of 0.50 mg/mL. […] The absorbance of dissolved formazan crystals correlates with the ratio of the living cells. Absorbance was measured with a FLUOstar OPTIMA Micro-plate Reader (BMG LABTECH, Offenburg, Germany) at 570 nm against a 690 nm reference.

- degradation after incubation in SGF [1]: completely degraded
- remaining at 0.5 h [2]: 3 ± 0.5%
- MCH recovery after incubation with SIF ([3]; SIF with pancreatin, 2 h): 1.00 ± 0.50%
- remaining at 0.5 h ([3]; pig, simulated intestinal fluid (SIF) with pancreatin, SIF with pancreatin (Ph. Eur.), 30 min, read-out: active MCH measured after incubation in SIF): 8 ± 0.5%
Structure (SMILES): CSCC[C@@H]1NC(=O)[C@@H](NC(=O)[C@H](CCCNC(=N)N)NC(=O)[C@H](CC(C)C)NC(=O)[C@H](CCSC)NC(=O)[C@H](CC(=O)O)NC(=O)[C@H](Cc2ccccc2)NC(=O)[C@@H](N)CC(=O)O)CSSC[C@@H](C(=O)N[C@@H](Cc2c[nH]c3ccccc23)C(=O)N[C@@H](CCC(N)=O)C(=O)N[C@H](C(=O)O)C(C)C)NC(=O)[C@@H]2CCCN2C(=O)[C@H](CCCNC(=N)N)NC(=O)[C@H](Cc2ccc(O)cc2)NC(=O)[C@H](C(C)C)NC(=O)[C@H](CCCNC(=N)N)NC(=O)CNC(=O)[C@H](CC(C)C)NC1=O [MCH, Melanin concentrating hormone]

Structure (SMILES): CCOCCOCCO [Transcutol HP, Diethylene glycol monoethyl ether]
- IC50 (cytotoxicity) ([4]; 30 min incubation with sample, 3 h MTT 0.50 mg/mL, absorbance 570 nm): 0.37 v/v%

Structure (SMILES): O.O.[Ca+2].[Cl-].[Cl-] [calcium-chloride dihydrate, Calcium chloride dihydrate]
- toxicity in MTT assay (in words) ([4]; 30 min incubation, also at higher concentrations): did not show relevant toxicity
